Experimental data: patent publication US9481870B2, “Nucleic acid encoding a polypeptide having aminotransferase activity, vectors and host cells comprising the nucleic acid” (KANEKA CORPORATION, priority 2010, dated 2016)
Values belong to the molecule of their own block, whether it stands above or below them.

Assays:
Type in all cases: biochemical, Pseudomonas sp. MV37
purified TPM [1] = assay: Specificity 2 to amino group donor: typical substrates of ω-amino acid transaminase (Example 11); settings: pyruvic acid 14 mM; for activity of TPM for the amino group donor: amino compound 14 mM, pH 7.5; for Relative activity (%): amino group donor 14 mM, pH 7.5, 30° C., 1 hour, (S)-1-phenethylamine = 100
Description: (§1) Specifically, first, a purified polypeptide is added to a substrate solution with the following composition so that the volume thereof is 400 μl. After 1 hour of reaction at 30° C., 20 μl of 3N hydrochloric acid is added to stop the reaction. Next, 80 μl of a 0.2 M aqueous sodium carbonate solution and 200 μl of an acetone solution of 3.3 mg/mL Dabsyl chloride are separately added to 20 μl of the thus obtained reaction solution, followed by 10 minutes of reaction at 70° C. Acetic acid (20 μl) is added to the reaction solution and then the solution is stirred. The reaction solution is analyzed by HPLC under the following conditions, and then the quantity of dabsylated alanine is determined. In addition, the concentration of a purified polypeptide to be used herein is adjusted so that the amount of alanine generated is 2.8 mM or less as determined by the determination method (hereinafter, referred to as activity assay B).
The purified TPM obtained in Example 7 was examined to determine its reactivity to typical substrates of ω-amino acid transaminase. First, 20 μL of a purified TPM solution was added to 380 μL of a substrate solution with the composition given below. After 1 hour of reaction at 30° C., 20 μL of 3 N hydrochloric acid was added to stop the reaction. Next, 80 μL of a 0.2 M aqueous sodium carbonate solution and 200 μL of an acetone solution of 3.3 mg/mL Dabsyl chloride were separately added to 20 μL of the thus obtained reaction solution, followed by 10 minutes of reaction at 70° C. 20 μL of acetic acid was added to the solution and then it was stirred. The reaction solution was analyzed by HPLC under the following conditions, and thus the quantity of dabsylated alanine was determined.
(§2) [High Performance Liquid Chromatography (HPLC) Analysis Conditions] • Column: Deverosil ODS-HG-3 (NOMURA CHEMICAL) • Eluent: acetonitrile/0.045 M acetate buffer (pH4.1)=35/65 (volume ratio) • Flow rate: 0.9 mL/minute • Detection: 254 nm

purified TPM [2] = assay: Specificity to amino group donor (dabsylated alanine quantification, Example 10); settings: pyruvic acid 14 mM, pH 7.5, 30° C., 1 hour; for Relative activity (%): amino group donor 14 mM (28 mM racemic body), n-butylamine = 100%
Description: as §1
The purified TPM obtained in Example 7 was examined to determine its specificity to amino group donors. First, 20 μL of a purified TPM solution was added to 380 μL of a substrate solution with the composition given below. After 1 hour of reaction at 30° C., 20 μL, of 3 N hydrochloric acid was added to stop the reaction. Next, 80 μl of an aqueous 0.2 M sodium carbonate solution and 200 μl of an acetone solution of 3.3 mg/mL Dabsyl chloride were added to 20 μL, of the thus obtained reaction solution, followed by 10 minutes of reaction at 70° C. 20 μL of acetic acid was added to the reaction solution. The reaction solution was stirred and then analyzed by HPLC under the following conditions, and thus the quantity of dabsylated alanine was determined.
as §2

purified TPM [3] = assay: Specificity to amino group receptor (Example 12); settings: (S)-1-phenethylamine 25 mM, pH 7.0, 30° C., 5 minutes
Description: A substrate solution was added to the purified TPM solution, so that the final concentrations of the components would be as follows. After 5 minutes of reaction at 30° C., 6N hydrochloric acid was added in an amount of 50 μL per mL of the reaction solution, so as to stop the reaction. The reaction solution was analyzed by HPLC under the following conditions.
[High Performance Liquid Chromatography (HPLC) Analysis Conditions] • Column: Wakosil-II 5C18 RS (Wako Pure Chemical Industries, Ltd.) • Eluent: 10 mM potassium phosphate buffer (pH5.3): acetonitrile=3:2 • Flow rate: 1 mL/minute • Detection: 241 nm

activity of TPM for the amino group donor (purified TPM [1]): does not exhibit activity
Relative activity (%) (purified TPM [1]): 0%
SMILES: NCCC(=O)O [β-alanine]

activity of TPM for the amino group donor (purified TPM [1]): does not exhibit activity
Relative activity (%) (purified TPM [1]): 0%
SMILES: NCCCCN [Putrescine]

SMILES: CCC(C)N (racemic) [±2-butylamine]
Relative activity (%) (purified TPM [2]): 67%
activity of TPM for the amino group donor (purified TPM [2]): exhibits its activity

Relative activity (%) (purified TPM [3]; substrate concentration 2.5 mM): 12%
SMILES: CC(=O)CCc1ccccc1 [Benzylacetone]

SMILES: CCCCN [n-butylamine]
Relative activity (%) (purified TPM [2]): 100%
activity of TPM for the amino group donor (purified TPM [2]): exhibits its activity

SMILES: NCCCC[C@H](N)C(=O)O [L-lysine]
activity of TPM for the amino group donor (purified TPM [1]): does not exhibit activity
Relative activity (%) (purified TPM [1]): 0%

SMILES: C[C@H](N)c1ccccc1 [(S)-α-phenethylamine]
Relative activity (%) (purified TPM [1]): 100%

SMILES: CCOC(=O)CC(=O)c1ccccc1 [Benzoylacetic acid ethyl]
Relative activity (%) (purified TPM [3]; substrate concentration 2.5 mM): 13%

SMILES: O=C(Cc1ccccc1)c1ccccc1 [Benzyl phenyl ketone]
Relative activity (%) (purified TPM [3]; substrate concentration 2.5 mM): 3.8%

SMILES: NCc1ccccc1 [benzylamine]
Relative activity (%) (purified TPM [2]): 95%
activity of TPM for the amino group donor (purified TPM [2]): exhibits its activity

SMILES: CCCC=O [Butylaldehyde]
Relative activity (%) (purified TPM [3]; substrate concentration 2.5 mM): 7%

activity of TPM for the amino group donor (purified TPM [1]): does not exhibit activity
Relative activity (%) (purified TPM [1]): 0%
SMILES: NCCCC(=O)O [4-aminobutyric acid]

Relative activity (%) (purified TPM [3]; substrate concentration 2.5 mM): 4.6%
SMILES: CCCCCC(C)=O [2-heptanone]

SMILES: O=C1CCN(Cc2ccccc2)C1 [1-benzyl-3-pyrrolidinone]
Relative activity (%) (purified TPM [3]; substrate concentration 2.5 mM): 4.7%

Relative activity (%) (purified TPM [3]; substrate concentration 25 mM): 100%
SMILES: CC(=O)C(=O)O [Pyruvic acid]

Relative activity (%) (purified TPM [3]; substrate concentration 2.5 mM): 16%
SMILES: CC(=O)c1ccccn1 [2-acetylpyridine]

Relative activity (%) (purified TPM [3]; substrate concentration 2.5 mM): 17%
SMILES: O=C1CCc2ccccc2C1 [2-tetralone]

Relative activity (%) (purified TPM [3]; substrate concentration 2.5 mM): 23%
SMILES: CC(=O)c1cnccn1 [Acetylpyrazine]

activity of TPM for the amino group donor (purified TPM [1]): does not exhibit activity
Relative activity (%) (purified TPM [1]): 0%
SMILES: NCCS(=O)(=O)O [Taurine]

SMILES: O=C(O)CCC(=O)C(=O)O [2-ketoglutaric acid]
Relative activity (%) (purified TPM [3]; substrate concentration 25 mM): 0%

SMILES: O=CC(=O)O [Glyoxalic acid]
Relative activity (%) (purified TPM [3]; substrate concentration 25 mM): 40%
